Test results reported in patent US20230331683A1, “INHIBITORS OF SPINSTER HOMOLOG 2 (SPNS2) FOR USE IN THERAPY” (University of Virginia Patent Foundation, priority 2020, published 2023).
Counter-ions that a name gives are not always drawn.

Molecular target: mouse SPNS2 (Mus musculus (Mouse), UniProt Q91VM4)
Assay: S1P Transporter Assay (S1P release from whole cells expressing SPNS2)
Assay type: cell-based
Settings: in vitro inhibition against SPNS2; HeLa cells expressing mouse SPNS2, S1P release into media after 18 hours; compounds as their pharmaceutical salts
Description: Transporter assays are vectorial and therefore require measurement of the transported analyte in different compartments. The S1P transporter SPNS2 only exports S1P, which obviates measuring uptake of S1P into transporter-expressing cells. Thus, transporter activity was determined by quantifying S1P release from whole cells expressing SPNS2. SPNS2 inhibitor potency was assessed using whole cell assays. HeLa cells expressing mouse SPNS2 were used to determine inhibitor potency (IC50). Cells were plated onto 12 well plates and assayed when the cell monolayers became confluent. Cell growth media (RPMI-1640 containing 10% fetal bovine serum) was replaced with 2 mL of serum-free media (RPMI-1640) containing fatty acid free bovine serum albumin (BSA) (0.2 % w/v) and supplemented with 4-deoxypyridoxine (DOP) (1 mM), NaF (2 mM), Na3VO4 (0.2 mM) to inhibit S1P degradation. Test articles (1 × 10-9 - 1 × 10^-4 M) were assayed in duplicate or triplicate. After 18 hours, media was collected, an internal recovery standard (0.005 mL of 5 × 10^-7 M deuterated (d7) S 1P in methanol) was added, the BSA was precipitated with trichloroacetic acid and the bound S1P extracted with methanol. S1P and S1P-d7 were measured by liquid chromatography mass spectrometry. Inhibitor potency at the human SPNS2 ortholog was determined by an analogous assay using U-937 cells, which endogenously express human SPNS2.

mouse SPNS2, sequence (Q91VM4 whole entry): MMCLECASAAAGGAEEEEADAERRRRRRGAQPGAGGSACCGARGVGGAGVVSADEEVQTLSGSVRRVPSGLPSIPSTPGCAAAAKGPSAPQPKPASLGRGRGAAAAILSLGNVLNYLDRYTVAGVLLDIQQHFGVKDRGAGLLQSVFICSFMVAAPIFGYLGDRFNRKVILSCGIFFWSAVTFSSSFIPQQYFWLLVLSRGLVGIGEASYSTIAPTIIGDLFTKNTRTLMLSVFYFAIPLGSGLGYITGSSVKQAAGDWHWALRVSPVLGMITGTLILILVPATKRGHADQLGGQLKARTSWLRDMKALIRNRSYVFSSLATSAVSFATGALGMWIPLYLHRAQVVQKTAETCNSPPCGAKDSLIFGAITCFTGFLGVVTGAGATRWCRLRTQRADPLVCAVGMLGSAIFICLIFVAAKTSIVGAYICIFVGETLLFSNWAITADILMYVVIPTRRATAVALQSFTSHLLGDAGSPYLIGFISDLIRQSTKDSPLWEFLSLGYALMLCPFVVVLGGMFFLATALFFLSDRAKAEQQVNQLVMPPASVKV

| Structure (SMILES) | IC50 [µM] |
| --- | --- |
| CCCCCCCCCCc1ccc(NC(=O)CCCCN)cc1 [Compound 2e, 5-amino-N-(4-decylphenyl)pentanamide Hydrochloride] | > 2 |
| CCCCCCCCCCc1ccc(NC(=O)CCCNC)cc1 [Compound 2n, N-decylphenyl)-4-(methylamino)butanamide Hydrochloride] | > 2 |
| CCCCCCCCCCc1ccc(NC(=O)[C@@H]2CCNC2)cc1 [Compound 2b] | > 2 |
| CCCCCCCCCCc1ccc(NC(=O)[C@@H]2CCCNC2)cc1 [Compound 2a] | > 2 |
| CCCCCCCCCCc1ccc(NC(=O)CCCCCN)cc1 [Compound 2f, 6-amino-N-(4-decylphenyl)hexanamide Hydrochloride] | ≤ 2 |
| CCCCCCCCCCc1ccc(C(=O)NC2CCNCC2)cc1 [Compound 39, 4-decyl-N-(piperidin-4-yl)benzamide Hydrochloride] | ≤ 2 |

Now from value to compound:

| IC50 [µM] | Structure (SMILES) |
| --- | --- |
| ≤ 2 | CCCCCCCCCCc1ccc(C(=O)NCCCN)cc1 [Compound 26d, N-aminopropyl)-4-decylbenzamide Hydrochloride] |
| > 2 | CCCCCCCCCCc1ccc2oc(CCCN)nc2c1 [Compound 8b, 3-Decylbenzo[d]oxazol-2-yl)propan-1-amine Hydrochloride] |
| > 2 | CCCCCCCCCCc1ccc2oc(CCCCCN)nc2c1 [Compound 8c, 5-Decylbenzo[d]oxazol-2-yl)pentan-1-amine Hyrdrochloride] |
| > 2 | CCCCCCCCCCc1cccc2nc(NCCCN)oc12 [Compound 13v, N^1-decylbenzo[d]oxazol-2-yl)propane-1,3-diamine hydrochloride] |
| > 2 | CCCCCCCCCCc1ccc(C(=O)NCCN)cc1 [Compound 26e, N-aminoethyl)-4-decylbenzamide Hydrochloride] |
